Experimental data reported in US20140378513A1, “USE OF FUNGICIDES IN LIQUID SYSTEMS” (priority 2011, published 2014).

Columns and labels:
[1] = tested on: Pest in infected Scenedesmus dimorphus culture; test: Fungicide efficacy on pest control in infected microalgae culture; assay type: cell-based; conditions: for Rating: rating scale of 0 to 3 by percent efficacy
Source text: Failure to treat an infected culture results in the collapse and loss of the microalgae culture. […] Test fungicides are graded on a rating scale of 0 to 3 where a score of 0 represents an efficacy of between 0 and 25%, a score of 1 represents an efficacy of between 26 and 50%, a score of 2 represents an efficacy of between 51 and 75% and a score of 3 represents an efficacy of between 76 and 100%.

[2] = tested on: Paraphysoderma sedebokerensis; test: Haematococcus pluvialis outdoor pond, PCR monitoring and treatment; conditions: 1 ppm
Protocol: A 200,000 liter outdoor pond is inoculated with Haematococcus pluvialis at an initial OD (750 nm) of ˜0.15 (pond P08). Growth of the microalgae is monitored daily by measuring the ash free dry weight of the culture. PCR monitoring is performed daily to detect the presence of the chytrid fungus Paraphysoderma sedebokerensis or close relatives using […] (SEQ ID NO. 38) and […] (SEQ ID NO. 39) as primers.
Initially, the Ct value for the pest is above the threshold of Ct=30. The measured Ct observed for P. sedebokerensis stays below Ct=30 and indicates a need for crop protective action. Once detected with a Ct<30, chlorothalonil is added at a concentration of 1 ppm. Daily monitoring is continued and the Ct observed for P. sedebokerensis increases above the Ct=30 threshold and remains above the threshold.

[3] = tested on: Rhizophidium planktonicum; test: Arthrospira sp. outdoor pond, qPCR monitoring and treatment; conditions: 1 ppm
Protocol: A 200,000 liter outdoor pond located in Las Cruces, N. Mex. is inoculated with Arthrospira sp. at an initial DW of 0.2 g/l. Growth of the microalgae is monitored daily by measuring the ash free dry weight of the culture. qPCR monitoring is performed daily to detect the presence of the chytrid fungus Rhizophidium planktonicum or close relatives using primers […] (SEQ ID NO. 40) and […] (SEQ ID NO. 41).
Initially, the Ct value for the pest is above the threshold of Ct=30. The measured Ct observed for R. planktonicum stays below Ct=30 and indicates a need for crop protective action. Once detected with a Ct<30, chlorothalonil is added at a concentration of 1 ppm. Daily monitoring is continued and the Ct observed for R. planktonicum increases above the Ct=30 threshold and remains above the threshold.

microalgae = test: Ranges of microalgae toxicity (serial dilution of fungicide in growing culture); conditions: range in which fungicide begins to show growth effects on microalgae
Source text: The present disclosure provides for the introduction of fungicides at an effective concentration. Effective concentrations may be determined according to manufacturer's instructions or may be determined empirically. An effective concentration of a fungicide is not toxic to the microalgae being cultured in the liquid system. Methods to determine toxicity are known in the art and include serial dilutions of a test fungicide in a growing liquid culture of microalgae. One of skill in the art would understand that different microalgae may have different ranges of toxicity that may be determined by growth of a microalga in the presence of a serial dilution of a fungicide.
Algae are screened for sensitivity to chemicals by preparing 180 ml of a log phase culture. The log phase culture is transferred into a 96 well microtiter plate at an absorbance at 750 nm (OD750 or A750) of ˜0.2. Twenty microliters of media is provided into the top row as a negative control, the middle six rows receive a 20 microliter dilution, which is a 10 fold dilution of the chemical at each transfer, of the chemical across an appropriate concentration gradient, and the bottom row receives 20 microliter of the solvent used to solubilize the pesticide alone as a control. The total volume per well is 200 μl. Each chemical is tested in triplicate. The growth of the algae is tracked daily by measuring the A750. After 8 days, the growth rate of the algae is measured by fitting the growth curve to a log model and deriving the maximum growth rate (r). The impact of the chemical is calculated by comparing the r of the algae at various dilutions of the pesticide to the control.

[4] = tested on: desmid strain (UTEX 1237); test: Growth of uncontaminated laboratory microalgae culture with fungicide (OD 750 nm); assay type: cell-based; conditions: UTEX 1237, 32° C., OD 750 nm daily
Protocol: A desmid strain (UTEX 1237) is inoculated into 1 ml of media at an initial A750 of 0.15. […] These cultures are monitored daily for growth by measuring the optical density of the culture at 750 nm. If pests are detected, their genomic DNA is quantitated at the beginning and end of the experiment using the methods presented above. […]
A desmid strain (UTEX 1237) is inoculated into 1.0 ml of media IABR6 at an initial OD (A750) of 0.15. […] These cultures are monitored daily for growth by measuring the optical density of the culture at 750 nm. If pests are detected, their genomic DNA is quantitated at the beginning and end of the experiment using the methods presented above. […]
A desmid strain (UTEX 1237) is inoculated into 1 ml of media at an initial OD (750 nm) of 0.15. […] These cultures are monitored daily for growth by measuring the optical density of the culture at 750 nm. If pests are in these cultures their genomic DNA is quantitated at the beginning and end of the experiment. […]

[5] = tested on: chytrids known to infect the strain (desmid UTEX 1237); test: Growth of chytrid-inoculated microalgae culture with fungicide (OD 750 nm); assay type: cell-based
Protocol: Microalgae cultures are prepared as described above and further inoculated with chytrids known to infect the strain, grown, and monitored as described above. […] In contrast, contaminated cultures grown in the presence of 250 ppb or higher concentrations of fluazinam are not affected by the presence of added chytrid. Fluazinam at a concentration of 100 ppb results in a stabilization of microalgae density at 0.8 ODU which is about 4 times the density of microalgae grown in the absence of fluazinam.
Microalgae cultures are prepared as described above and further inoculated with chytrids known to infect the strain, grown and monitored as described above. […] In contrast, contaminated cultures grown in the presence of 1 ppm or higher concentrations of Headline® are not affected by the presence of added chytrid contaminant. Headline® at a concentration of 0.5 ppm results in a stabilization of microalgae density at about 0.3 ODU which is about 2 times the density of microalgae grown in the absence of Headline®.
Microalgae cultures are prepared as described above and further inoculated with chytrids known to infect the strain, grown and monitored as described above. […] In contrast, contaminated cultures grown in the presence of 2 ppm or higher concentrations of Thiram® are not affected by the presence of added chytrid contaminant. Thiram® at a concentration of 1.0 ppm results in a stabilization of microalgae density at about 0.8 ODU which is about 4 times the density of microalgae grown in the absence of Thiram®.

pest FD100 = test: 200,000 liter outdoor desmid pond P08, qPCR monitoring and treatment; design: species or system chytrid FD100; conditions: 0.5 ppm added day 18 post-inoculation; through day 38
Protocol: A 200,000 liter outdoor pond located in Las Cruces, N. Mex. is inoculated with a desmid strain at an initial OD (750 nm) of ˜0.15 (pond P08). Growth of the microalgae is monitored daily by measuring the ash free dry weight of the culture. PCR monitoring is performed daily to detect the presence of pests.
Initially, the Ct value for the pest is above the threshold of Ct=30 until day 15 (See, FIG. 14). The measured Ct observed for pest FD100 monitoring stays below Ct=30 and indicates a need for crop protective action. On day 18 post-inoculation, fluazinam is added at a concentration of 0.5 ppm. Daily monitoring is continued and the Ct observed for pest FD100 increases above the Ct=30 threshold and remains above the threshold through day 38.
Successful culture depends on the timely identification of a pest. On day 30, in response to a decrease in optical density of the culture, 1 ppm of pyraclostrobin is added.

chytrid pest = test: Outdoor ponds P16 and PA6 with or without fluazinam treatment
Protocol: Monitoring for chytrid pest and microalgae growth is performed as described in the examples above. In Pond 16 (P16), a signal for the presence of a chytrid pest is detected beginning on Day 8 using the universal primer pair to the methyltransferase gene (SEQ ID NOs: 30 and 31) and to the ITS gene (SEQ ID NOs: 32 and 33). At this point, 400 liters of P16 are inoculated into Pond A6 (PA6). Continuous detection of the presence of chytrid in pond P16 and A6, indicates a need for crop protection and 0.5 ppm of fluazinam is added on Day 11 to P16 but not PA6. Monitoring of the growth of microalgae is continued in both Pond 16 and Pond A6 using total organic carbon (TOC), OD(750), fluorescence, and a FlowCAM®.

[6] = Tetradesmus dimorphus, read-out: Scenedesmus dimorphus efficacy
[7] = fluazinam 100 ppb, contaminated culture

Compound | Scenedesmus dimorphus Efficacy confirmation ([1]; @ 2 ppm, second trial) [% @ 2 ppm] | activity at 2 ppm [1, 6] [%] | Rating [1] | Ct observed for P. sedebokerensis after treatment [2] | Ct observed for R. planktonicum after treatment [3] | Ranges of Microalgae toxicity (microalgae) [ppm] | activity at 0.8 ppm [1, 6] [%] | concentrations that do not significantly affect the growth of the uncontaminated microalgae culture [4] | concentration at which contaminated cultures are not affected by the presence of added chytrid ([5]; UTEX 1237 inoculated with chytrids) [ppb] | density relative to microalgae grown in the absence of fungicide [5, 7] | stabilization of microalgae density [5, 7] [ODU] | Ct observed for pest FD100 after treatment (pest FD100) | growth of microalgae in treated pond (chytrid pest; 0.5 ppm added on Day 11 to P16, untreated PA6 collapses) | fraction of infected cells after treatment (chytrid pest; 0.5 ppm, pond P16, increases in untreated PA6)
N#Cc1c(Cl)c(Cl)c(Cl)c(C#N)c1Cl [chlorothalonil, 2,4,5,6-tetrachlorobenzene-1,3-dicarbonitrile] | 75.7 | 84.5 | 3 (a score of 3 represents an efficacy of between 76 and 100%) | > 30 | > 30 |  |  |  |  |  |  |  |  | 
O=[N+]([O-])c1cc(C(F)(F)F)c(Cl)c([N+](=O)[O-])c1Nc1ncc(C(F)(F)F)cc1Cl [fluazinam, 3-chloro-N-[3-chloro-2,6-dinitro-4-(trifluoromethyl)phenyl]-5-(trifluoromethyl)-2-pyridinamine] |  |  | 2 (a score of 2 represents an efficacy of between 51 and 75%) |  |  | >7.5 | 67 | up to 2 ppm | ≥ 250 | about 4 times | 0.8 | > 30 | Logarithmic growth continues | stabilizes or decreases
